Key:
[1] = test system: farnesylated proteins F1, F2 and F3 in Met18b-2 cells; assay: Inhibition of intracellular farnesylation in intact Met18b-2 cells, Triton-soluble proteins F1, F2, F3; assay type: cell-based, Chinese hamster
[2] = test system: low molecular weight GTP binding proteins (SMG) in Met18b-2 cells; assay: [3H]mevalonate labeling of low molecular weight GTP binding proteins (SMG) in Met18b-2 cells; assay type: cell-based, Chinese hamster
Excerpt: To study farnesylation in intact cells we used Met18b-2 cells, a line of Chinese hamster ovary (CHO) cells that takes up [3H]mevalonate efficiently (see Faust, J., and Krieger, M. J. Biol. Chem. 262, 1966 (1987)) owing to the production of a mevalonate transport protein (see Kim, C. M., Goldstein, J. L., Brown, M. S. J. Biol. Chem. 267, 23113 (1992)). The [3H]mevalonate is converted by the cells into [3H]farnesyl pyrophosphate and [3H]geranylgeranyl pyrophosphate, which are then attached to proteins (Kim, C. M., Goldstein, J. L., Brown, M. S. J. Biol. Chem. 267, 23113 (1992)). In the assay, stock cultures of Met18b-2 cells were seeded at a density of 3-105 cells per 60 mm dish in 3 ml of medium A (Dulbecco's modified Eagle medium/Ham's F12 medium (1:1, v/v) containing 100 U/ml penicillin and 100 μg/ml streptomycin) supplemented with 5% (v/v) fetal calf serum (FCS). On day 3, each monolayer was refed with 1 ml medium A supplemented with 1% FCS (dialyzed against 0.15 M NaCl). At this point the cells were treated with 100 μM compactin (see Brown, M. S., Faust, J. R., Goldstein, J. L., Kaneko, I., and Endo, A. J. Biol. Chem. 253, 1121 (1978)) which blocks the synthesis of unlabeled mevalonate within the cells. Each compound was dissolved at 25 mM in DMSO/10 mM DTT immediately before use and 10 μl of this solution added directly. After 2 hr incubation at 37° C., each monolayer received 100 μCi [3H]mevalonate (60 Ci/mmol, American Radiolabeled Chemicals, Inc.) added in 100 μl of the medium A, and the incubation continued for 4 hr. The cells were harvested by rinsing three times with 3 ml of 50 mM Tris-HCl/0.15 M NaCl (pH 7.5). 300 μl of lysis buffer (0.5X Dulbecco's phosphate-buffered saline containing 1% Triton X-100, 5 μg/ml leupeptin, 5 μg/ml pepstatin, 0.5 mM phenylmethylsulfonyl fluoride, and 0.05 U/ml aprotinin) was added to each monolayer. After incubation on ice for 5 mon, the lysates were centrifuged 30 sec in a microfuge at 12,000 g. […] Protein concentrations were determined using the BCA protein assay reagent (Pierce) according to the manufacturer's instructions. […]

HT-1080 cells = assay: Growth inhibition of human tumor line HT-1080; assay type: cell-based; details: HT-1080, fibrosarcoma, ras transformed, read-out: % growth inhib.
Procedure: (§1) To examine the effects of farnesyltransferase inhibition on cell growth, three cell lines (ras-transformed rat-1, src-transformed rat-1, and parental rat-1 cells) were seeded (see FIG. 7) at low density and allowed to grow for 10 days in the absence or presence of increasing concentrations of BZA-5B (compound 37). See Example 128 for description of cells. On day 0, cells were plated in monolayer culture at 2×10^3 cells per well (24-well plates) in 1 ml DMEM supplemented with 10% fetal calf serum, 100 U/ml penicillin, 100 μg/ml streptomycin, 0.5 mM DTT, 0.025% DMSO, and the indicated concentration of BZA-5B (compound 37). On days 3 and 7, cells were washed and refed with the same medium. At the time indicated in FIG. 7, cells were harvested by trypsinization and counted in a Coulter counter. Panels A, C, E show the growth rate of each cell line in the absence of inhibitor. Panels B, D, F show the inhibition of growth as a function of concentration of BZA-5B at each time point. […]
(§2) To examine the effects of farnesyltransferase inhibition on the growth of human tumor cell lines, several such lines were treated with 25 μM BZA-5B (compound 37B) using a procedure similar to that described in Example 129 above. Cells were refed with fresh media at days 3 and 6 containing the inhibitor, and were harvested and counted as described above. […]

HCT-116 cells = assay: Growth inhibition of human tumor line HCT-116; assay type: cell-based; details: HCT-116, colon, ras transformed, read-out: % growth inhib.
Procedure: as §1, §2

| Structure (SMILES) | labeling of Triton-soluble farnesylated proteins (F1 to F3) ([1]; 250 μM, FIG. 3) | effect on low molecular weight GTP binding proteins (SMG) ([2]; 250 μM, FIG. 3) | IC (almost complete) ([1]; Cricetulus griseus, read-out: concentration of almost complete inhibition of farnesylation of F1-3) [µM] | minimal effective concentration ([1]; Cricetulus griseus, read-out: concentration of detectable inhibition of farnesylation of F1-3) [µM] | relative potency in intact cells ([1]; dose dependence, FIG. 4, compared with 27B and 37B) | incorporation of radioactivity into SMG proteins ([2]; increasing concentration, FIG. 5, lanes 2-4) | inhibition at 25 µM (HT-1080 cells) [%] | inhibition at 25 µM (HCT-116 cells) [%] |
| --- | --- | --- | --- | --- | --- | --- | --- | --- |
| CSCC[C@H](NC(=O)CN1C(=O)C(N(C)C(=O)[C@@H](N)CS)N=C(c2ccccc2)c2ccccc21)C(=O)O (single isomer, unassigned) [27B] | markedly decreased the labeling of all three Triton-soluble farnesylated proteins (F1 to F3) | little effect on the low molecular weight GTP binding proteins | – | – | – | – | – | – |
| COC(=O)[C@H](CCSC)NC(=O)CN1C(=O)C(N(C)C(=O)[C@@H](N)CS)N=C(c2ccccc2)c2ccccc21 (single isomer, unassigned) [37B] | – | – | 25 | 10 | much more potent than the parent, compound 27B | did not detectably inhibit the incorporation of radioactivity into the abundant SMG proteins | 64 | 0 |
